Source: the METLIN SMRT retention time set (Domingo-Almenara et al. 2019)

Experiment: gradient 5% acetonitrile 3 min, to 50% in 2 min, to 85% in 15 min, held 3 min, 100 µL/min
Conditions: column: Zorbax Extend-C18 2.1 x 50 mm; eluents: water / acetonitrile, 0.1% formic acid
How it was run: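 Pure standards were analyzed in mixtures of ~100 molecules using HPLC coupled to a quadrupole time-of-flight mass spectrometer, in both positive and negative ionization mode. Separation used a Zorbax Extend-C18 column (2.1 × 50 mm, 1.8 μm) at 100 μL/min, with water and acetonitrile each containing 0.1% formic acid. Dead and dwell volumes were 40 μL and 900 μL, and data were collected over 3 months. Retention time was read from computationally picked adduct peaks, each inspected manually.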

RP-LC retention time [s] | Structure (SMILES)
753 | COc1cccc(CNC(=O)C2CCCN(c3ccc(-c4nc(C)no4)cn3)C2)c1OC (centres undefined)
964 | COC(=O)c1ccccc1NC(=O)NCc1nc(-c2ccccc2)oc1C
765 | NC(=O)C1CCN(c2oc(-c3ccccc3Cl)nc2S(=O)(=O)c2ccccc2)CC1
738 | CCOC(=O)COc1cc(-c2ccccc2)nc2ccc(NC(=O)C3CC3)cc12
1140 | Cc1cccc(-c2nc(-c3nnn(-c4ccccc4)c3C)no2)c1
1180 | CCCOc1nc2ccccc2nc1N1CCCC(C(=O)NC2CCCC2)C1 (centres undefined)
685 | Cc1oc(-c2ccc(C(=O)NCCCN3CCOCC3)cc2)nc1CSc1ccccc1
798 | COc1ccc(NC(=O)Nc2nccn(-c3cccc(F)c3)c2=O)cc1OC
722 | CCCCC(=O)Nc1ccc2nc(N3CCN(c4cccc(C)c4)CC3)cc(C(=O)O)c2c1
983 | CCOc1ccccc1-c1noc(Cn2c(=O)n(CC)c(=O)c3ccccc32)n1
639 | Cc1cc(C(=O)N2CC(c3nc(-c4ccccn4)no3)C2)no1
1020 | CCn1cc(-c2nc(-c3ccc(Cl)cc3)no2)c(=O)c2cc(F)c(N3CCOCC3)cc21
734 | O=C(NCc1cccs1)C1CCCN(S(=O)(=O)c2c[nH]c(C(=O)N3CCCC3)c2)C1 (centres undefined)
1210 | CCCn1c(=O)c(C)nc2cc(-c3noc(-c4cccc(F)c4)n3)ccc21
885 | CCc1nn2c(CNC(=O)c3cccc(OC)c3)c(-c3ccccc3)nc2s1
746 | COc1ccc(-c2cc3c(=O)n(CC(=O)N4CCCC4)ncn3n2)cc1
837 | COc1ccccc1CNC(=O)Cc1csc(NC(=O)Nc2cccc(Cl)c2)n1
567 | CC(C)n1c(C2CCN(C(=O)Cc3cccc(Cl)c3)C2)nc2ccncc21 (centres undefined)

RP-LC retention time [s] | Structure (SMILES)
885 | Cc1cccc(-c2nc3sc(N4CCCCC4)nn3c2NC(=O)c2ccnn2C)c1
656 | COc1cccc(NC(=O)C2CCN(S(=O)(=O)c3cn(C)cn3)CC2)c1
937 | CCCc1noc(-c2ccc3nnc(CC(=O)Nc4ccc(Cl)cc4)n3c2)n1
706 | COCCNC(=O)N1CCCN(C2=NS(=O)(=O)C(c3cccc(Cl)c3)=C2C)CC1
943 | CCOc1ccc(C(=O)NCc2c(-c3ccccc3)nc3sc(CC)nn23)cc1
594 | COc1cccc(OC)c1CN1CC[C@@H]2CN(S(C)(=O)=O)[C@@H]2C1
947 | COc1cccc(NC(=O)N2CCCC2c2nc(-c3cccc(OC)c3)no2)c1 (centres undefined)
1200 | COc1ccc(-c2noc(Cc3nc(-c4ccc(Br)cc4)cs3)n2)cc1OC
762 | Cc1ccc(CNC(=O)N2CCC(n3c(-c4ccco4)nc4cccnc43)C2)cc1 (centres undefined)
777 | CCN1C(=O)c2cccnc2Sc2cc(CNC(=O)c3cc(OC)cc(OC)c3)ccc21
745 | CCN(CC)C(=O)c1ccc(-c2nnc3ccc(NC(=O)C4CCC4)cn23)cc1
1270 | CCc1ccc(-c2noc(-c3nnn(Cc4nc(-c5ccccc5OC)oc4C)c3C)n2)cc1
784 | COc1ccccc1N1CCN(CCn2c(=O)c3c(c4ccccc4n3C)n(C)c2=O)CC1
930 | Cc1ccc(-c2cn3c(CC(=O)NCC(C)c4ccccc4)csc3n2)cc1C (centres undefined)
753 | O=C(NCc1csc(C2CCN(C(=O)Cc3ccccc3Cl)CC2)n1)C1CCC1
804 | O=C(NC1CCCCC1)c1nc(-c2ccnc(N3CCCCC3)c2)no1
710 | COc1cc(OC)cc(C(=O)NC2CCN(c3cc(-c4ccccc4)[nH]n3)C2)c1 (centres undefined)

The remaining lines, values behind:

Structure (SMILES) | RP-LC retention time [s]
CCN1C(=O)c2cccnc2Sc2cc(NC(=O)c3cccc(C(F)(F)F)c3)ccc21 | 957
O=C(NCc1ccccc1F)c1cn2cc(Cl)ccc2n1 | 723
CCOC(=O)C1=C(C)NC2=C(C(=O)c3ccccc32)C1c1cccc(OC)c1 (centres undefined) | 988
CN(C)S(=O)(=O)c1ccc(C(=O)N2CCC(Oc3nc4ccccc4s3)CC2)cc1 | 892
Cc1nc(C)c2c(n1)N(CC1CCCCC1)C(=O)CC2 | 730
Cc1cc(C)n(CCC(=O)N2CCC(n3c(C)cnc3C)C2)n1 (centres undefined) | 563
CCCCc1ccc(N2CCn3c2nc2c3c(=O)n(CC(=O)O)c(=O)n2C)cc1 | 826
Cc1cc(C)cc(Nc2nc(C)cc3nn(CC(=O)NC4CCCC4)c(=O)n23)c1 | 998
CN(C)c1ccc2c(c1)CN(C(=O)c1cc(C3CC3)[nH]n1)CCO2 | 588
CCn1cc(C2=CCN(S(=O)(=O)c3ccc(F)cc3)CC2)c2cccnc21 | 1020
Cn1c(=O)c(C(=O)N2CCCCC2)nc2cccnc21 | 648
CCNC(=O)c1nc2cccnc2n(C)c1=O | 615
CCN1CCCn2nc(C3CCN(C(=O)COc4ccccc4)CC3)cc2C1=O | 678
Cc1cccc(NC(=O)CCCCC(=O)O)n1 | 528
CC(C)n1cc(CN2CC(F)(F)C[C@H]2COc2cccnc2)c2ccccc21 | 698
CCn1c(=O)c(N2CCN(C(=O)Nc3ccccc3Br)CC2)nc2cccnc21 | 991
Cc1nnc2sc(SCC(=O)NCc3ccc4c(c3)OCO4)nn2c1=O | 603
O=C1CCc2cc(S(=O)(=O)N3CCCC3C(=O)N3CCN(c4ccccc4)CC3)ccc2N1 (centres undefined) | 713
c1ccc(CN2CCC3(CCc4ccccc43)CC2)cc1 | 784
Nc1nc(-c2ccccc2)c(C(=O)Nc2ccccc2)s1 | 706
CCc1ccccc1NC(=O)Cn1c(CC)nc2c(c1=O)CN(Cc1ccccc1)CC2 | 666
O=C(c1ccccc1F)N1CCC(n2nc(-c3ccsc3)ccc2=O)CC1 | 783
Cc1nn(CCC(=O)Nc2ccccc2Cl)c(=O)c2nn(-c3ccccc3)c(C)c12 | 827
Cn1cnc2c1CN(C(=O)c1ccc(Br)o1)CC2 | 563
CC1(C)CC(=O)c2cn(-c3ccc(Cl)cc3)c(=O)c(C(=O)Nc3cccnc3)c2C1 | 763
CCN(CC)C(=O)c1ccc2c(c1)N(CC(=O)Nc1ccc3c(c1)OCO3)C(=O)C1CCCCN21 (centres undefined) | 808
COc1ccc(CNCCSc2nnnn2C)c(OC)c1 | 598

Structure (SMILES) | RP-LC retention time [s]
Cc1nn(CC(=O)N2CCN(c3ccc(Cl)cc3)CC2)c(=O)c2nc(C(C)C)sc12 | 921
O=C(CN1CCN(Cc2ccc(F)cc2)C1=O)NCC1CCCCC1 | 854
CCOC(=O)N1CCC(NC(=O)Cc2csc(Nc3cccc(Cl)c3)n2)CC1 | 771
Cc1c2cnn(CC(=O)NCc3ccco3)c(=O)c2c(C)n1Cc1cccc(Cl)c1 | 862
COC(=O)c1ccccc1NC(=O)CCc1c(-c2ccc(F)cc2)nc2ccccn12 | 724
CNCC[C@@H](Oc1ccccc1C)c1ccccc1 | 728
CC(=O)c1cccc(NC(=O)c2cccc3ccccc23)c1 | 840
CC(=O)N1c2ccc(S(=O)(=O)N3CCCC3)cc2CC1C(=O)NCCN(C)Cc1ccccc1 (centres undefined) | 619
Cc1nc2ncnn2c(N2CCC(C)CC2)c1C | 1020
CC(C)C(=O)Nc1ccc(C2(C(=O)O)CCC2)cc1 | 720
CN1CCCc2cc(C(CNC(=O)C(=O)NCc3ccc(F)cc3)N3CCOCC3)ccc21 (centres undefined) | 569
O=C(NCC1CCN(Cc2ccsc2)CC1)Nc1ccc2c(c1)OCO2 | 554
CCc1cc(-c2csc(S(=O)(=O)Nc3ccc(F)c(Cl)c3)c2)on1 | 1020
CNC(=O)c1c2c(nc3ccccc13)CCC2 | 542
O=S(=O)(c1cc(-c2ccno2)cs1)N(CCc1ccccc1)Cc1ccccc1 | 1200
CCc1ccc2oc(C(=O)NCC(c3cccs3)N(C)C)cc(=O)c2c1 (centres undefined) | 654
O=S(=O)(c1cc(F)ccc1F)N1CCc2nc(-c3ccc(F)cc3)ncc2C1 | 1100
CN(C)S(=O)(=O)c1ccc(C(=O)Nc2nc3c(s2)CCc2ccccc2-3)cc1 | 1110
Cc1ccccc1Cc1nc2ccccc2n1CC(N)=O | 570
CC(=O)N1CCc2sc(S(=O)(=O)N3CCN(c4ccccc4)CC3)cc2C1 | 884
O=S(=O)(NCc1cccs1)c1ccc(Cl)c(-c2nnc(-c3ccccc3)o2)c1 | 1020
CCc1ccc(NC(=O)Nc2ccc(NC(=O)N3CCC(C(=O)NC)CC3)cc2)cc1 | 704
CCSc1cccc(C(=O)N2CC(=O)Nc3ccccc32)c1 | 756
COc1ccc(CCC(=O)N2CCN(c3nccn3-c3cccc(Cl)c3)CC2)cc1 | 617
O=C(N[C@H]1C[C@@H]2C[C@H]1N(C(=O)Nc1ccc(Cl)cc1F)C2)c1cccs1 | 855
O=c1ccc(N2CCC(NS(=O)(=O)c3ccc(F)c(F)c3)CC2)nn1CC1CC1 | 834
O=C(Cn1c(=O)c(CCC(=O)NC2CCCC2)nc2ccccc21)Nc1ccc(F)c(F)c1 | 825
